Measured values reported in the NIST ThermoML archive (doi:10.1016/j.jct.2016.03.009).
± gives the expanded uncertainty stated by the source.

Conditions: Crystal 2; DSC

Question: With `[Ag+].[S-2].[S-2].[Sb+3]` [antimony(III) silver(I) sulfide] as the molecule, how does the Triple point temperature read?
Answer: 648.6 ± 2.1 K
